Here are results for 23 compounds from ChEMBL document CHEMBL6083291, “Discovery of Thiochroman Derivatives as Potent, Oral Selective Estrogen Receptor Degraders and Antagonists for the Treatment of Endocrine-Resistant Breast Cancer” (J Med Chem, 2024).

Series [1] has as its system MCF7. Kind of series: Antiproliferative activity against human MCF7 cells assessed as reduction in cell viability incubated for 6 days by CellTiter-Glo reagent based luminescence analysis. The conditions noted are these: Homo sapiens, MCF7, 144 h. Background: In ATP-based viability assays light output follows the ATP content of the culture.
Series [2] addresses T1, Estrogen receptor (Homo sapiens, UniProt P03372).
T1 sequence (P03372 whole entry): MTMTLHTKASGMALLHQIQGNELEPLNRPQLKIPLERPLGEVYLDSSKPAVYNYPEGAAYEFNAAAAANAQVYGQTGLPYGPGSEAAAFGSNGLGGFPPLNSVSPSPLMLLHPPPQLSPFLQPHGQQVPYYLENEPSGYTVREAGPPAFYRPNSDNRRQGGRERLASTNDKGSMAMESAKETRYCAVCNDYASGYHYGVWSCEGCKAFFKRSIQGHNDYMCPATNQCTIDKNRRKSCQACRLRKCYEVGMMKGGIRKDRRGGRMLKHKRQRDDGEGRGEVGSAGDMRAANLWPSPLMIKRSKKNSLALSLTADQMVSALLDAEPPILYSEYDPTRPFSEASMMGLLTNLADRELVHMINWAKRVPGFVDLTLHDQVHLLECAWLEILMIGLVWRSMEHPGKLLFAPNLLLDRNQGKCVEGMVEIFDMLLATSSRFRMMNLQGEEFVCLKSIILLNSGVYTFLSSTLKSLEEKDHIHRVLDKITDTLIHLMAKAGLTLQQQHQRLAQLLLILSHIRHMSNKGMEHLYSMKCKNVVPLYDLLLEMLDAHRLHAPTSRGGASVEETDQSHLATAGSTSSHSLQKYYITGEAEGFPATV
Description: Induction of ER-alpha degradation in human MCF7 cells incubated for 24 hrs by In-Cell Western blot analysis. The class given is cell-based.

The target of series [3] is Voltage-gated inwardly rectifying potassium channel KCNH2 (Homo sapiens, UniProt Q12809). Description: Inhibition of hERG expressed in CHO cells assessed as inhibition of channel current by automated Qpatch clamp analysis. (Block of hERG is tested as a sign of cardiac risk.)
Series [4] is described as follows: Antagonist activity at ER-alpha Y537S mutant (unknown origin) expressed in human MCF7 cells assessed as inhibition of ER-alpha transcription by immunofluorescence assay.
Series [5] relates to MCF7. Kind of series: Antiproliferative activity against human MCF7 cells harboring ER-alpha Y537S mutant assessed as inhibition of cell growth.
Series [6] can be described thus: Estrogenic like activity in Sprague-Dawley rat assessed as increase in ratio of uterine wet weight to body weight at 0.1 mg/kg, po qd for 3 days relative to control. The class given is toxicity, organism-based. The conditions noted are these: in vivo, 72 h, time 3 day.
Series [7] is described as follows: Toxicity in Sprague-Dawley rat assessed as thickened endometrium in uterus at 0.1 mg/kg, po qd for 3 days by Hematoxylin-Eosin staining based analysis. The class given is organism-based. As to conditions: in vivo, 72 h, time 3 day.
Series [8] can be described thus: Antagonist activity at ER-alpha D538G mutant (unknown origin) expressed in human MCF7 cells assessed as inhibition of ER-alpha transcription by immunofluorescence assay.
The target of series [9] is T1, Estrogen receptor. The class given is cell-based, HEK293.
The nature of series [10]: Antiproliferative activity against endocrine-resistant human MCF7 Tam1 cells assessed as inhibition of cell growth. The conditions noted are these: Tamoxifen-resistant MCF7.

Chain of Voltage-gated inwardly rectifying potassium channel KCNH2 (Q12809 whole entry): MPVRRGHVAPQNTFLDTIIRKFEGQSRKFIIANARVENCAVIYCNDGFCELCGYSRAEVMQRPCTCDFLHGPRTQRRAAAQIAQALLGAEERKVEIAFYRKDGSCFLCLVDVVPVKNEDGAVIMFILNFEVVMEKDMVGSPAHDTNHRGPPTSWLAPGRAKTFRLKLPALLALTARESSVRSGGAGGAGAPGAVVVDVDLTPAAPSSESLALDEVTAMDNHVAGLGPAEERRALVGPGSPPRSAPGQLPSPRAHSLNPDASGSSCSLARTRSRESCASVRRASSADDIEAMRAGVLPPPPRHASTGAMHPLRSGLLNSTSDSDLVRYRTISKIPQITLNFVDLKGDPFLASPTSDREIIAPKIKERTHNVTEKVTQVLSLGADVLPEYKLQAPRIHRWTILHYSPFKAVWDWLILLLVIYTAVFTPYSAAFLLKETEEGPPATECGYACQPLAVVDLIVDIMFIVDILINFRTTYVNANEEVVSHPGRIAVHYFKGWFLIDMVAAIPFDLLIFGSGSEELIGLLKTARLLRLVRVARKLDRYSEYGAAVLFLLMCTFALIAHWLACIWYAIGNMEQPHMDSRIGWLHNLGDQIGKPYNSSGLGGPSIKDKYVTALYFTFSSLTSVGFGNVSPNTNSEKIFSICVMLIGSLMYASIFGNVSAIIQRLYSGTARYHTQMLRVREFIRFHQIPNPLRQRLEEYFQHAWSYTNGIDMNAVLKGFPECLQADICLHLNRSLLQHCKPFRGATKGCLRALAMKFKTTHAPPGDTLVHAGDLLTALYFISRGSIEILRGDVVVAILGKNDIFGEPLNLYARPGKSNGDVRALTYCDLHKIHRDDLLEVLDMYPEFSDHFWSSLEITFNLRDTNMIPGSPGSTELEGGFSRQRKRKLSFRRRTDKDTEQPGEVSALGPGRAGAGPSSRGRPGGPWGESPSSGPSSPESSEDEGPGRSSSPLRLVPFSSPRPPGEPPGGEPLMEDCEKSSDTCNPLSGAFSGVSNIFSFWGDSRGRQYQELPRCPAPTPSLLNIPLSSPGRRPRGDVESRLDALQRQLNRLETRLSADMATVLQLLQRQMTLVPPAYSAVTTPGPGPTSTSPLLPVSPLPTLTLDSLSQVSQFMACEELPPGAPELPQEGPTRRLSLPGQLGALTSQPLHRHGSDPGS

Usually IC50 stands for the concentration at which inhibition is half-maximal. In general, DC50 refers to the concentration at which degradation of the target reaches its halfway point. High values mean a less potent degrader, low ones a more potent degrader. Regarding `Oc1ccc2c(c1)OC[C@H](c1ccc(F)cc1F)[C@@H]2c1ccc(OC2CN(CCCF)C2)cc1` (racemic), the 50% inhibitory concentration (IC50) with MCF7 [1] was 7.7 nM. On Estrogen receptor [2], this compound displayed a DC50 of 2.8 nM.
In the case of `Oc1ccc2c(c1)OC[C@H](c1ccc(F)cc1F)[C@@H]2c1ccc(NCCN2CC(CF)C2)cc1` (racemic), in the series with MCF7 [1], the IC50 stood at 9.3 nM. Moreover, the half-maximal degradation concentration (DC50) on Estrogen receptor [2] stood at 1.7 nM.
Consider `COc1cc(F)ccc1[C@H]1CSc2cc(O)ccc2[C@H]1c1ccc(NC2CN(CCCF)C2)cc1` (racemic), for which the IC50 with MCF7 [1] came to 0.9 nM; in series [3], 22000 nM.
Take `Oc1ccc2c(c1)OCC[C@H](c1ccc(F)cc1F)[C@@H]2c1ccc(OCCN2CC(CF)C2)cc1` (racemic): in the series on MCF7 [1], the concentration for half-maximal inhibition (IC50) worked out at 47 nM.
As for `COc1ccc([C@H]2COc3cc(O)ccc3[C@H]2c2ccc(OCCN3CC(CF)C3)cc2)cn1` (racemic), in the series on MCF7 [1], the IC50 came to 0.86 nM.
Still for that read-out and setting: as for `CC1(C)C[C@H](c2ccc(F)cc2F)[C@H](c2ccc(OCCN3CC(CF)C3)cc2)c2ccc(O)cc21` (racemic), the figure is 8.8 nM.
Take `Cn1cc([C@H]2COc3cc(O)ccc3[C@H]2c2ccc(OCCN3CC(CF)C3)cc2)cn1` (racemic): the IC50 in the series with MCF7 [1] turned out to be 38 nM. Half-maximal degradation at Estrogen receptor [2] (DC50) was put at 98 nM.
The like results for `CS(=O)(=O)N1CCC([C@H]2COc3cc(O)ccc3[C@H]2c2ccc(OCCN3CC(CF)C3)cc2)CC1` (racemic) were, in that order, 6.2 nM and 8.8 nM.
As for `FCC1CN(CCOc2ccc([C@@H]3c4ccc5[nH]ncc5c4SC[C@@H]3c3cc(F)c(F)cc3F)cc2)C1` (racemic), in the series with MCF7 [1], the IC50 turned out to be 5.8 nM. This compound also yielded a half-maximal degradation concentration (DC50) at Estrogen receptor [2] of 6.6 nM.
Consider `Cc1cc(F)ccc1[C@H]1CSc2cc(O)ccc2[C@H]1c1ccc(OCCN2CC(CF)C2)cc1` (racemic), for which the IC50 with MCF7 [1] came to 0.8 nM.
`COc1cc(F)ccc1[C@H]1CSc2cc(C(=O)O)ccc2[C@H]1c1ccc(OCCN2CC(CF)C2)cc1` (racemic): the IC50 in the series with MCF7 [1] is 1.7 nM. Also, the 50% degradation concentration (DC50) on Estrogen receptor [2] was 9.6 nM.
In the case of `Oc1ccc2c(c1)OC[C@H](c1ccc(F)cc1F)[C@@H]2c1ccc(OCCN2CC(CF)C2)cc1F` (racemic), in series [3], the 50% inhibitory concentration (IC50) worked out at 5400 nM.
Regarding `N#Cc1cc(F)ccc1[C@H]1COc2cc(O)ccc2[C@H]1c1ccc(OCCN2CC(CF)C2)cc1` (racemic), the half-inhibitory concentration (IC50) in the series on MCF7 [1] is 4.9 nM.
Consider `COc1cc([C@@H]2c3ccc(O)cc3OC[C@@H]2c2ccc(F)cc2F)ccc1OCCN1CC(CF)C1` (racemic), for which the IC50 with MCF7 [1] was 4.8 nM. Moreover, the DC50 at Estrogen receptor [2] was 4.5 nM.
With `Oc1ccc2c(c1)OC[C@H](c1ccc(F)cc1F)[C@@H]2c1ccc(O[C@H]2CCN(CCCF)C2)cc1` (racemic), in the series with MCF7 [1], the IC50 came to 7.7 nM.
Still for that read-out and setting: with `O=C(CN1CC(CF)C1)Nc1ccc([C@@H]2c3ccc(O)cc3OC[C@@H]2c2ccc(F)cc2F)cc1` (racemic) the figure was 243 nM.
With `COc1cc(F)ccc1[C@H]1CS(=O)(=O)c2cc(O)ccc2[C@H]1c1ccc(OCCN2CC(CF)C2)cc1` (racemic), the IC50 is 1.6 nM with MCF7 [1] and more than 40000 nM in series [3].
In the case of `O=C(O)c1ccc2c(c1)CCCC(c1ccc(Cl)cc1Cl)=C2c1ccc(O[C@H]2CCN(CCCF)C2)cc1` [AMCENESTRANT], the IC50 in the series on MCF7 [1] worked out at 3.9 nM; in [4] it was 57.5 nM.
`C[C@@H]1Cc2c(ccc3[nH]ncc23)[C@@H](c2ccc(NC3CN(CCCF)C3)cn2)N1CC(F)(F)F` [CAMIZESTRANT]: the values for the half-maximal inhibitory concentration (IC50) in the series with MCF7 [1] and in the series on MCF7 [5] were 0.68 nM and 21.2 nM, respectively.
For `C#C[C@]1(O)CC[C@H]2[C@@H]3CCc4cc(O)ccc4[C@H]3CC[C@@]21C` [ETHINYL ESTRADIOL], the “fold change (FC)” value in series [6] is 3. Further, the Activity result in series [7] is given as “Toxic”.
Take `C[C@]12CC[C@@H]3c4ccc(O)cc4C[C@@H](CCCCCCCCC[S+]([O-])CCCC(F)(F)C(F)(F)F)[C@H]3[C@@H]1CC[C@@H]2O` (some centres not stated) [FULVESTRANT]: the values for the IC50 in series [4] and in series [8] were 13.3 nM and 15.3 nM, respectively.
`C[C@@H]1Cc2c([nH]c3ccccc23)[C@@H](c2c(F)cc(NC3CN(CCCF)C3)cc2F)N1CC(F)(F)CO` [GIREDESTRANT]: the half-maximal inhibitory concentration (IC50) in the series with MCF7 [1] came to 0.2 nM; on Estrogen receptor [9], 0.43 nM; in series [10], 1.22 nM; with MCF7 [5], 6.77 nM. This compound also registered a half-maximal degradation concentration (DC50) on Estrogen receptor [2] of 0.3 nM.
Regarding `O=C1CC[C@H](N2Cc3cc(N4CCN(CC5CCN(c6ccc([C@@H]7c8ccc(O)cc8CC[C@@H]7c7ccccc7)cc6)CC5)CC4)ccc3C2=O)C(=O)N1` [VEPDEGESTRANT], the IC50 in the series with MCF7 [1] amounted to 2.7 nM; in series [10], 2.12 nM; in the series with MCF7 [5], 133 nM.
